# Read-outs that look alike come from different tables or passages of the source.
# System: HCV pseudoparticles, genotype 1a HCV E1 and E2 envelope (H77C isolate)
# Experiment: HCV pseudoparticle infection assay (luciferase reporter, Huh7 cells)
# Assay type: cell-based
# [1] = Hepatitis C virus, Huh-7, 48 h, read-out: EC50 (nM) 1a (H77C), class symbol, HCV pseudoparticles genotype 1a (H77C), luciferase 2 days after infection
# [2] = Hepatitis C virus, Huh-7, 48 h, read-out: EC50 (nM) 1a (H77C), numeric value, HCV pseudoparticles genotype 1a (H77C), luciferase 2 days after infection
# [3] = class symbol, HCV pseudoparticles genotype 1a (H77C), luciferase 2 days after infection, read-out: EC50 (nM) 1a (H77C)
Compound,EC50 [1] [nM],also measured
COC(=O)N1CCCCCCCCNc2nc(nc(OCC(F)(F)F)n2)Nc2ccc(cc2)C(=O)NCCC1 [Example 9003],0.1 to 100,–
CC(C)NC(=O)N1CCCOc2ccc(cc2)CNc2nc(nc(OCC(F)(F)F)n2)Nc2ccc(cc2)C(=O)NCC(C)(C)C1 [Example 6037],0.1 to 100,–
CC(C)(C)NC(=O)N1CCCCNC(=O)c2ccc(cc2)Nc2nc(nc(OCC(F)(F)F)n2)NCc2ccc(cc2)OCC1 [Example 4009],0.1 to 100,EC50 [2]: 8.47 nM
O=C1CCCC(=O)NCc2cccc(c2)CNc2nc(nc(OCC(F)(F)F)n2)Nc2ccc(cc2)CN1 [Example 0062],100 to 1000,–
CC(C)(C)NC(=O)N1CCCCOc2ccc(cc2)CNc2nc(nc(OCC(F)(F)F)n2)Nc2ccc(cc2)C(=O)NCCC1 [Example 4034],0.1 to 100,–
O=C1NCCCCNC(=O)NCc2ccc(cc2)Nc2nc(nc(OCC(F)(F)F)n2)NCc2ccc(cc2)CN1 [Example 0053],100 to 1000,–
O=C1NCCCCNC(=O)C2(CC2)Nc2nc(nc(OCC(F)(F)F)n2)Nc2ccc1cc2 [Example 0006],–,EC50 [3]: 1000 to 5000 nM
CCCN1CCCNC(=O)c2ccc(cc2)Nc2nc(nc(OCC(F)(F)F)n2)NCc2ccc(cc2)OCCC1 [Example 6027],0.1 to 100,–
CN1CCCOc2ccc(cc2)CNc2nc(nc(OCC(F)(F)F)n2)Nc2ccc(cc2)C(=O)NCC(C)(C)C1 [Example 6040],0.1 to 100,–
CC(C)(C)OC(=O)N1CCCOc2ccc(cc2)CNc2nc(nc(OCC(F)(F)F)n2)Nc2ccc(cc2)C(=O)NCC1 [Example 6002],0.1 to 100,–
COC(=O)N1CCCOc2ccc(cc2)CNc2nc(nc(OCC(F)(F)F)n2)Nc2ccc(cc2)C(=O)NCC(C)(C)C1 [Example 6032],0.1 to 100,–
COCC(=O)N1CCCCNC(=O)c2ccc(cc2)Nc2nc(nc(OCC(F)(F)F)n2)NCc2ccc(cc2)OCC1 [Example 4035],0.1 to 100,EC50 [2]: 4.37 nM
O=C1NCCCCCCCCCCNc2nc(nc(OCC(F)(F)F)n2)Nc2ccc1cc2 [Example 0003],–,"EC50 [3]: 100 to 1000 nM; EC50 (numeric value, HCV pseudoparticles genotype 1a (H77C), luciferase 2 days after infection, read-out: EC50 (nM) 1a (H77C)): 101 nM"
CC(C)OC(=O)N1CCCCNC(=O)c2ccc(cc2)Nc2nc(nc(OCC(F)(F)F)n2)NCc2ccc(cc2)OCC1 [Example 4015],0.1 to 100,–
CC(=O)N1CCCCNC(=O)c2ccc(cc2)Nc2nc(nc(OCC(F)(F)F)n2)NCc2ccc(cc2)OCC1 [Example 4002],100 to 1000,EC50 [2]: 105 nM
CCNC(=O)N1CCCNC(=O)c2ccc(cc2)Nc2nc(nc(OCC(F)(F)F)n2)NCc2ccc(cc2)OCCC1 [Example 6012],0.1 to 100,EC50 [2]: 6.1 nM
O=C1COCC(=O)NCc2ccc(cc2)Nc2nc(nc(OCC(F)(F)F)n2)NCc2ccc(cc2)CN1 [Example 0069],0.1 to 100,EC50 [2]: 78.8 nM
CC(C)N1CCCNC(=O)c2ccc(cc2)Nc2nc(nc(OCC(F)(F)F)n2)NCc2ccc(cc2)OCCC1 [Example 6025],0.1 to 100,–
CC(C)(C)OC(=O)N1CCCCNC(=O)c2ccc(cc2)Nc2nc(nc(OCC(F)(F)F)n2)NC2(CC2)c2ccc(cc2)OCCC1 [Example 5006],0.1 to 100,–
CCCNC(=O)N1CCCOc2ccc(cc2)CNc2nc(nc(OCC(F)(F)F)n2)Nc2ccc(cc2)C(=O)NCC(C)(C)C1 [Example 6030],0.1 to 100,–
CC(C)CN1CCCNC(=O)c2ccc(cc2)Nc2nc(nc(OCC(F)(F)F)n2)NCc2ccc(cc2)OCCC1 [Example 6020],0.1 to 100,–
CCN(CC)CCN1CCNC(=O)c2ccc(cc2)Nc2nc(nc(OCC(F)(F)F)n2)Nc2ccc(cc2)C1=O [Example 0021],100 to 1000,–
O=C1NCCCCCCNC(=O)c2ccc(cc2)Nc2nc(nc(OCC(F)(F)F)n2)NCc2ccc1cc2 [Example 0032],100 to 1000,–

Compound,EC50 [1] [nM],also measured
COC(=O)N1CCCNC(=O)c2ccc(cc2)Nc2nc(nc(OCC(F)(F)F)n2)NCc2ccc(cc2)OCCC1 [Example 6014],0.1 to 100,EC50 [2]: 1.51 nM
CNC(=O)N1CCCCNC(=O)c2ccc(cc2)Nc2nc(nc(OCC(F)(F)F)n2)NC2(CC2)c2ccc(cc2)OCCC1 [Example 5004],0.1 to 100,–
CCOC(=O)N1CCCCNC(=O)c2ccc(cc2)Nc2nc(nc(OCC(F)(F)F)n2)NCc2ccc(cc2)OCC1 [Example 4014],0.1 to 100,–
O=C1NCCCCNC(=O)c2ccc(cc2)Nc2nc(nc(OCC(F)(F)F)n2)NCc2ccc1cc2 [Example 0033],100 to 1000,–
O=C1CCCC(=O)NCc2ccc(cc2)Nc2nc(nc(OCC(F)(F)F)n2)NCc2ccc(cc2)CN1 [Example 0061],100 to 1000,–
"O=C1NCCCCNCCOc2ccc(cc2)CNC2=N/C(=N\c3ccc1cc3)N=C(OCC(F)(F)F)N2 [Example 4001, (2E)-5-(2,2,2-trifluoroethoxy)-14-oxa-2,4,6,8,17,22,31-heptaazatetracyclo[22.2.2.2∼10,13∼.1∼3,7∼]hentriaconta-1(26),2,4,7(31),10,12,24,27,29-nonaen-23-one]",0.1 to 100,–
CCNC(=O)N1CCCCNC(=O)c2ccc(cc2)Nc2nc(nc(OCC(F)(F)F)n2)NCc2ccc(cc2)OCCC1 [Example 6022],0.1 to 100,EC50 [2]: 11.8 nM
CCCOC(=O)N1CCCOc2ccc(cc2)CNc2nc(nc(OCC(F)(F)F)n2)Nc2ccc(cc2)C(=O)NCC(C)(C)C1 [Example 6034],0.1 to 100,–
CCOC(=O)N1CCCNC(=O)c2ccc(cc2)Nc2nc(nc(OCC(F)(F)F)n2)NCc2ccc(cc2)OCCC1 [Example 6015],0.1 to 100,–
CC(C)C(=O)N1CCCCOc2ccc(cc2)CNc2nc(nc(OCC(F)(F)F)n2)Nc2ccc(cc2)C(=O)NCCC1 [Example 4020],0.1 to 100,–
O=C1NCCCCCCCCNc2nc(nc(OCC(F)(F)F)n2)Nc2ccc1cc2 [Example 0002],–,EC50 [3]: 0.1 to 100 nM
O=C1COCC(=O)NCc2cccc(c2)CNc2nc(nc(OCC(F)(F)F)n2)Nc2ccc(cc2)CN1 [Example 0070],0.1 to 100,–
CC(C)(C)OC(=O)N1CCCCNC(=O)c2ccc(cc2)Nc2nc(nc(OCC(F)(F)F)n2)NCc2ccc(cc2)OCC1 [Example 4016],0.1 to 100,–
O=C1NS(=O)(=O)C/C=C/CCCOc2ccc(cc2)CNc2nc(nc(OCC(F)(F)F)n2)Nc2ccc1cc2 [Example 3005],1000 to 5000,–
CC1(C)C(=O)NCc2ccc(cc2)Nc2nc(nc(OCC(F)(F)F)n2)NCc2cccc(c2)CNC1=O [Example 0072],0.1 to 100,–
CC(C)(C)OC(=O)N1CCCNC(=O)c2ccc(cc2)Nc2nc(nc(OCC(F)(F)F)n2)NCc2ccc(cc2)OCCC1 [Example 6017],0.1 to 100,–
O=C1NCCCCCNc2cccc(c2)C2(CC2)Nc2nc(nc(OCC(F)(F)F)n2)Nc2ccc1cc2 [Example 3001],0.1 to 100,–
CCOC(=O)N1CCCCOc2ccc(cc2)CNc2nc(nc(OCC(F)(F)F)n2)Nc2ccc(cc2)C(=O)NCCC1 [Example 4024],0.1 to 100,–
CC(C)(C)NC(=O)N1CCCCCCCCNc2nc(nc(OCC(F)(F)F)n2)Nc2ccc(cc2)C(=O)NCCC1 [Example 9008],0.1 to 100,–
CCC(=O)N1CCCCOc2ccc(cc2)CNc2nc(nc(OCC(F)(F)F)n2)Nc2ccc(cc2)C(=O)NCCC1 [Example 4019],0.1 to 100,–
O=C1CCCCNC(=O)c2ccc(cc2)Nc2nc(nc(OCC(F)(F)F)n2)NCc2ccc(cc2)OC/C=C/S(=O)(=O)N1 [Example 3012],100 to 1000,EC50 [2]: 275 nM
O=C1NCc2ccc(cc2)Nc2nc(nc(OCC(F)(F)F)n2)NCc2cccc(c2)CNC(=O)c2ccc1cc2 [Example 0060],100 to 1000,–
CC1(C)CNCCCOc2ccc(cc2)CNc2nc(nc(OCC(F)(F)F)n2)Nc2ccc(cc2)C(=O)NC1 [Example 6024],0.1 to 100,–
